Read-outs that look alike come from different tables or passages of the source.
Key:
[1] = target: T1, human recombinant adrenergic α2B receptor (Homo sapiens, UniProt P18089); assay: Radioligand binding, adrenergic α2B ([3H]Rauwolscine)
T1 construct: expressed in transfected cells; host or cells: CHO-K1
T1 sequence (P18089 1-450): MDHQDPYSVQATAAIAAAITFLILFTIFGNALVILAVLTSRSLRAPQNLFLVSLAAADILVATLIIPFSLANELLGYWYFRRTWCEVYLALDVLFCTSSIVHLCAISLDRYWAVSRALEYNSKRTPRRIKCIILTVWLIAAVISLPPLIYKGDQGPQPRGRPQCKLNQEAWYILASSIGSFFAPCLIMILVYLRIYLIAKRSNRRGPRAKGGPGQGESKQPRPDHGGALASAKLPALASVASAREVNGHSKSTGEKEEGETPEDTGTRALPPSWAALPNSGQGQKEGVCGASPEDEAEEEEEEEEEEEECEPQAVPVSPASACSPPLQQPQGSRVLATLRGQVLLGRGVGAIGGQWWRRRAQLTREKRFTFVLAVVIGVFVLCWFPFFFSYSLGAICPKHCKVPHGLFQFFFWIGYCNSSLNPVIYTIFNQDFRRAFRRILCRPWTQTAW
Method in brief: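 Receptor expressed in CHO-K1 cells, assayed in 50 mM Tris-HCl pH 7.4 with 12.5 mM MgCl2, 1 mM EDTA and 0.2% BSA. Compounds were incubated with 2.5 nM [3H]Rauwolscine for 60 min at 25° C; 10 μM Prazosin defined non-specific binding. Filter counting gave percent inhibition of specific binding.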

[2] = target: T2, rat adrenergic α1B receptor (Rattus norvegicus, UniProt P15823); assay: Radioligand binding, adrenergic α1B ([3H]Prazosin)
T2 construct: rat adrenergic α1B receptor obtained from Wistar Rat liver; from tissue; host or cells: Wistar rat liver
T2 sequence (P15823 1-515): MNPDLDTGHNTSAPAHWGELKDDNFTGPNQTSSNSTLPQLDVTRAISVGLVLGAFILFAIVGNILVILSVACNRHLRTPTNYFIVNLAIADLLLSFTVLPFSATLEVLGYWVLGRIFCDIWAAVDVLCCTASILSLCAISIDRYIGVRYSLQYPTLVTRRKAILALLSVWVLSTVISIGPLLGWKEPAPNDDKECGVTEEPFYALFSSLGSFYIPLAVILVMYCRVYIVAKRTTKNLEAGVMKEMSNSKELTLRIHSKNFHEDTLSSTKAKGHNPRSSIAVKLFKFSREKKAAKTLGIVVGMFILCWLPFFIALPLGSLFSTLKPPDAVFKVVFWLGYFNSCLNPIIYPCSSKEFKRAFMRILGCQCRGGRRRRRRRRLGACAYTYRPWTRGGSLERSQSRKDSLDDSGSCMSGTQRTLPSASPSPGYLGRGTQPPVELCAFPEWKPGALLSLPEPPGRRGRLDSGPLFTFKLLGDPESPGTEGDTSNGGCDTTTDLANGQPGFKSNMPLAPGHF
Method in brief: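 Specific binding, taken as total minus that remaining with 10 μM phentolamine, is measured after filtration and counting. Rat liver receptor preparation and 0.25 nM [3H]prazosin are incubated with compound in 50 mM Tris-HCl (pH 7.4, 0.5 mM EDTA) at 25° C for 60 min. Activity is reported as percent inhibition.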

[3] = target: T3, human recombinant adrenergic α1D receptor (Homo sapiens, UniProt P25100); assay: Radioligand binding, adrenergic α1D ([3H]Prazosin)
T3 construct: expressed in transfected cells; host or cells: HEK-293
T3 sequence (P25100 1-572): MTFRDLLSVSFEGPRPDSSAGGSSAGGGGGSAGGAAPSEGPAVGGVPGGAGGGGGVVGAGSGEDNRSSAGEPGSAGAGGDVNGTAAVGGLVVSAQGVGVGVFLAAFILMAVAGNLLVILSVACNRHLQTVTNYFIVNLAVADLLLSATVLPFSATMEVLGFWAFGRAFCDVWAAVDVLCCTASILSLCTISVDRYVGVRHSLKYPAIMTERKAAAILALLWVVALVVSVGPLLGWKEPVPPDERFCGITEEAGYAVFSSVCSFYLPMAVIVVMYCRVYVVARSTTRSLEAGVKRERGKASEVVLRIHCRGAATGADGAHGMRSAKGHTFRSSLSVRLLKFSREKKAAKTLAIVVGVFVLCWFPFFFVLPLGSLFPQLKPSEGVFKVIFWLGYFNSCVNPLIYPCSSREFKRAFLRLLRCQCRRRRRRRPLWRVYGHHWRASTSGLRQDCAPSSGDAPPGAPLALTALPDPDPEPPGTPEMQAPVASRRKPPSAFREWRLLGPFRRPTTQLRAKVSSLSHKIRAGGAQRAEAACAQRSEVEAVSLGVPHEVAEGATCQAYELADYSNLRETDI
Procedure: Compounds were incubated with 0.6 nM [3H]Prazosin for 60 min at 25° C. Non-specific binding was estimated in the presence of 10 μM phentolamine. Receptor proteins were filtered and washed, the filters were then counted to determine [3H]Prazosin specifically bound. […] Biochemical assay results are presented as the percent inhibition of specific binding in Table B1.

[4] = target: T4, human recombinant adrenergic α2A receptor (Homo sapiens, UniProt P08913); assay: Radioligand binding, adrenergic α2A ([3H]MK-912)
T4 construct: expressed in transfected cells; host or cells: insect Sf9 cells
T4 sequence (P08913 1-465): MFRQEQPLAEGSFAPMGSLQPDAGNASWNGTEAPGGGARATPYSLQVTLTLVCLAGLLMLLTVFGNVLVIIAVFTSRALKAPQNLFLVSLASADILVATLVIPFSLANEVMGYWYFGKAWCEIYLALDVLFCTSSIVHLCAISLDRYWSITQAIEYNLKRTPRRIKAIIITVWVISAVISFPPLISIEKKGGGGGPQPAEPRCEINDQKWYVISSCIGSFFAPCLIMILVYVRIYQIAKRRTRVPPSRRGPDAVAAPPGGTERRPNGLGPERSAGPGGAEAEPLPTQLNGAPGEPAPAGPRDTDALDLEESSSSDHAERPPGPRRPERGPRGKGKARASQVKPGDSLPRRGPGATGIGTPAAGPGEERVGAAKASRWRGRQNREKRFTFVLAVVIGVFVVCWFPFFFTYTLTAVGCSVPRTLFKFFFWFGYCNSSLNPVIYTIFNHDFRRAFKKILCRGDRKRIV
Method in brief: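 Receptor expressed in Sf9 cells, in 50 mM Tris-HCl pH 7.4, 12.5 mM MgCl2, 2 mM EDTA; compounds incubated with 1 nM [3H]MK-912 for 60 min at 25 °C.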

[5] = read-out: Percentage inhibition of ligand binding, Adrenergic α2B (0.1 μM), compound at 0.1 μM, [3H]Rauwolscine, repeat datapoints each shown
[6] = read-out: Percentage inhibition of ligand binding, Adrenergic α1B (0.1 μM), compound at 0.1 μM, [3H]Prazosin, repeat datapoints each shown
[7] = read-out: Percentage inhibition of ligand binding, Adrenergic α1D (0.1 μM), compound at 0.1 μM, [3H]Prazosin, repeat datapoints each shown
[8] = read-out: Percentage inhibition of ligand binding, Adrenergic α2A (0.1 μM), compound at 0.1 μM, [3H]MK-912, repeat datapoints each shown
[9] = 0.1 μM compound, read-out: Percentage inhibition of ligand binding, Adrenergic α2B
[10] = 0.1 μM compound, read-out: Percentage inhibition of ligand binding, Adrenergic α1B
[11] = 0.1 μM compound, read-out: Percentage inhibition of ligand binding, Adrenergic α1D
[12] = 0.1 μM compound, read-out: Percentage inhibition of ligand binding, Adrenergic α2A

| inhibition at 0.1 µM [1, 5] | inhibition at 0.1 µM [2, 6] | inhibition at 0.1 µM [3, 7] | inhibition at 0.1 µM [4, 8] | inhibition at 0.1 µM [1, 9] | inhibition at 0.1 µM [2, 10] | inhibition at 0.1 µM [3, 11] | inhibition at 0.1 µM [4, 12] | SMILES | also measured |
| --- | --- | --- | --- | --- | --- | --- | --- | --- | --- |
| 65% | 56% | 77% | 0% | – | – | – | – | CC(=O)Nc1ccc(/C(C)=C\n2c3c(c4cc(C)ccc42)CN(C)CC3)cn1 [compound 111] | – |
| 104% | 95% | 101% | 96% | – | – | – | – | COc1ccc(/C(C)=C/n2c3c(c4cc(C)ccc42)CCN(C)CC3)c(F)c1 [compound 222] | – |
| – | – | – | – | – | – | – | – | Cc1ccc2c(c1)c1c(n2CCc2ccc(C(F)(F)F)nc2)CCN(C)C1 [compound 86] | inhibition at 0.1 µM ([1]; compound at 0.1 μM, [3H]Rauwolscine, repeat assays, each datapoint shown, read-out: Percentage inhibition of ligand binding, Adrenergic α2B): 77%; inhibition at 0.1 µM ([2]; compound at 0.1 μM, [3H]Prazosin, repeat assays, each datapoint shown, read-out: Percentage inhibition of ligand binding, Adrenergic α1B): 62%; inhibition at 0.1 µM ([3]; compound at 0.1 μM, [3H]Prazosin, repeat assays, each datapoint shown, read-out: Percentage inhibition of ligand binding, Adrenergic α1D): 62%; inhibition at 0.1 µM ([4]; compound at 0.1 μM, [3H]MK-912, repeat assays, each datapoint shown, read-out: Percentage inhibition of ligand binding, Adrenergic α2A): 27% |
| – | – | – | – | 37% | 23% | 40% | 57% | Cc1ccc2c(c1)c1c(n2C2=C(c3ccnn3C)CCC2)CCN(C)C1 [compound 309, 2,8-dimethyl-5-(2-(1-methyl-1H-pyrazol-5-yl)cyclopent-1-enyl)-2,3,4,5-tetrahydro-1H-pyrido[4,3-b]indole] | – |
| 69% | 70% | 26% | 52% | – | – | – | – | C/C(=C\n1c2c(c3cc(C)ccc31)CCN(C)C2)c1ccc(Cl)cc1 [compound 224] | – |
| – | – | – | – | 87% | 63% | 47% | 69% | C/C(=C\n1c2c(c3cc(C)cc(C)c31)CN(C)CC2)c1cccc(S(C)(=O)=O)c1 [compound 310] | – |
| 42% | 64% | 19% | 77% | – | – | – | – | C/C(=C/n1c2c(c3cc(Cl)ccc31)CCN(C)CC2)c1ccc(Cl)cc1Cl [compound 228] | – |
| 69% | 13% | 21% | 25% | – | – | – | – | C/C(=C\n1c2c(c3cc(C)ccc31)CN(C)CC2)c1cnn(C)c1 [compound 109] | – |
| – | – | – | – | 99% | 98% | 72% | 58% | Cc1ccc2c(c1)c1c(n2C#Cc2ccc(S(N)(=O)=O)cc2)CCN(C)C1 [compound 330, 4-(2,8-dimethyl-1,2,3,4-tetrahydro-pyrido[4,3-b]indol-5-ylethynyl)-benzenesulfonamide] | – |
| 103% | 93% | 88% | 77% | – | – | – | – | C/C(=C\n1c2c(c3cc(C)ccc31)C1CCCN1CC2)c1ccc(C)nc1 (stereo not shown) [compound 193, 10-methyl-7-(2-(6-methylpyridin-3-yl)prop-1-enyl)-2,3,5,6,7,11c-hexahydro-1H-indolizino[7,8-b]indole] | – |
| – | – | – | – | 51% | 60% | 17% | 54% | Cc1ccc2c(c1)c1c(n2CCc2cccc(N(C)C)c2)CCN(C)C1 [compound 298, {3-[2-(2,8-dimethyl-1,2,3,4-tetrahydro-pyrido[4,3-b]indol-5-yl)-ethyl]-phenyl}-dimethyl-amine] | – |
| – | – | – | – | 97% | 87% | 79% | 91% | C/C(=C\n1c2c(c3cc(C)ccc31)CN(C)CC2)c1ccc2cnccc2c1 [compound 311] | – |
| 63% | 19% | 12% | -2% | – | – | – | – | C/C(=C\n1c2c(c3cc(C)cnc31)CN(C)CC2)c1ccncc1 [compound 124] | – |
| – | – | – | – | 100% | 51% | 24% | 84% | C/C(=C\n1c2c(c3cc(Cl)ccc31)CN(C)C(C)C2)c1ccc(C)nc1 (stereo not shown) [compound 257] | – |
| – | – | – | – | 85% | 75% | 36% | 58% | COc1ccc(C(C)(O)Cn2c3c(c4cc(C)ccc42)CN(C)CC3)cc1 (stereo not shown) [254a] | – |
| – | – | – | – | 97% | 71% | 84% | 98% | C/C(=C/n1c2c(c3cc(C)ccc31)CN(C)CC2)c1ccc(C)s1 [compound 277] | – |
| – | – | – | – | 14% | 18% | 12% | 78% | Cc1ccc2c(c1)c1c(n2C2=C(c3cccc4ccccc34)CCC2)CCN(C)C1 [compound 306, 2,8-dimethyl-5-(2-(naphthalen-1-yl)cyclopent-1-enyl)-2,3,4,5-tetrahydro-1H-pyrido[4,3-b]indole] | – |
| 88% | 6% | 44% | 16% | – | – | – | – | C=C(Cn1c2c(c3cc(C)ccc31)CN(C)CC2)c1ccncc1 [compound 121] | – |

| SMILES | inhibition at 0.1 µM [1, 5] | inhibition at 0.1 µM [2, 6] | inhibition at 0.1 µM [3, 7] | inhibition at 0.1 µM [4, 8] | inhibition at 0.1 µM [1, 9] | inhibition at 0.1 µM [2, 10] | inhibition at 0.1 µM [3, 11] | inhibition at 0.1 µM [4, 12] | also measured |
| --- | --- | --- | --- | --- | --- | --- | --- | --- | --- |
| COc1ccc(C(C)(O)Cn2c3c(c4cc(Cl)ccc42)C2CCC(C3)N2C)cc1F (stereo not shown) [II-164] | 40% | 12% | 0% | 15% | – | – | – | – | – |

Reference: patent US8791132B2, “Compounds and methods for treatment of hypertension” (Medivation Technologies, Inc., priority 2011, dated 2014)
